Laboratory results reported in publication PMC3527388, “Transport Mechanisms and Their Pathology-Induced Regulation Govern Tyrosine Kinase Inhibitor Delivery in Rheumatoid Arthritis” (PLoS ONE, 2012).

Target: T1, novel organic cation transporter 1 (hOCTN1) (Homo sapiens, UniProt Q9H015)
T1 construct: gene SLC22A4
T1 sequence (Q9H015 1-551): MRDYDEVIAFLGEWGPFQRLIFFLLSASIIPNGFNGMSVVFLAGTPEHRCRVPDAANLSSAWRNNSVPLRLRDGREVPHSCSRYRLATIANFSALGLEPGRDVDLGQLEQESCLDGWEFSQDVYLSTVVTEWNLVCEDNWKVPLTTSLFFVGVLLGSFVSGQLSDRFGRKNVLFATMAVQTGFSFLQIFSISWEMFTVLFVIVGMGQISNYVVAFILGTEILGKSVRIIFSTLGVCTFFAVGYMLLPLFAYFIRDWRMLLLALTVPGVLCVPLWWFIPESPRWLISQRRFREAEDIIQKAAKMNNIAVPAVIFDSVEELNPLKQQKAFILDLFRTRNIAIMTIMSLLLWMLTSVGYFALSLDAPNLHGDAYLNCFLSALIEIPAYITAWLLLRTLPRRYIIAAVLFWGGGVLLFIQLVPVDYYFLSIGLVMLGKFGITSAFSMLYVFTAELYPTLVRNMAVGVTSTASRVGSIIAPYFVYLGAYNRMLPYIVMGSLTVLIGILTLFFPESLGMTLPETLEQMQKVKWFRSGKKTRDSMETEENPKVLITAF
Assay: ASP+ uptake in HEK293 cells with doxycycline-induced versus uninduced hOCTN1
Type: cell-based
From the text: ASP+ uptake in HEK293 cells with doxycycline-induced versus uninduced hOCTN1 on novel organic cation transporter 1 (hOCTN1) | ASP^+ is a substrate for hOCTN1. Comparison of ASP^+ uptake by HEK293 cells stably transfected

## CN(C)c1ccc(C=Cc2cc[n+](C)cc2)cc1 [ASP+, 4-(4-(Dimethylamino)Styryl)-N-methylpyridinium]
  ASP+ uptake in HEK293 cells with doxycycline-induced versus uninduced hOCTN1: ASP^+ is a substrate for hOCTN1. Comparison of ASP^+ uptake by HEK293 cells stably transfected
